In patent US10220034B2, “Hepatitis B viral assembly effectors” (Indiana University Research and Technology Corp., priority 2013, dated 2019):

Columns and labels:
AD38 cells = assay: Activity of test compounds on viral production from AD38 cells (qPCR viral load); assay type: cell-based, HBV; design: key: (+) depicting meets criteria for significant activity; (++) depicting exceeds criteria; conditions: 5 days, supernatant qPCR
Protocol: AD38 cells grown in a 175 cm flash with Growth Medium (DMEM/F12 (1:1) (cat#SH30023.01, Hyclone, 1× Pen/step (cat#: 30-002-CL, Mediatech, Inc), 10% FBS (cat#: 101, Tissue Culture Biologics), 250 μg/mL G418 (cat#: 30-234-CR, Mediatech, Inc), 1 μg/mL Tetracycline (cat#: T3325, Teknova)) were detached with 0.25% trypsin. Tetracycline-free treatment medium (15 mL DMEM/F12 (1:1) (cat#SH30023.01, Hyclone, 1× Pen/step (cat#: 30-002-CL, Mediatech, Inc), with 2% FBS, Tet-system approved (cat#: 631106, Clontech) were then added to mix and spun at 1300 rpm for 5 min. Pelleted cells were then re-suspended/washed with 50 mL of 1×PBS 2 times and 10 mL treatment medium one time. AD38 cells were then re-suspended with 10 mL of treatment medium and counted. Wells of a collagen coated 96-well NUNC microtiter plate were seeded at 50,000/well in 180 μL of treatment medium, and 20 μL of either 10% DMSO (Control) or a 10× solution of test compound in 10% DMSO in treatment media was added for as final compound concentration 1, 3, or 10 μM (1.0% final [DMSO]) and plates were incubated for 5 days at 37° C.
Subsequently viral load production was assayed by quantitative PCR of the core sequence. Briefly, 5 μL of clarified supernatant was added to a PCR reaction mixture that contained forward primers HBV-f 5′-[…]-3′, Reverse primers HBV-r 5′-[…]-3′ and Fluorescent TaqMan™ Probes HBV-probe 5′-FAM/[…]/ZEN/[…]/31ABkFQ-3′ in Quanta Biosciences PerfeCTa® qPCR Toughmix®, and was subsequently on an Applied Biosystems VIIA7 in a final volume of 20 μL. The PCR mixture was incubated at 45° C. for 5 minutes, then 95° C. for 10 min, followed by 40 cycles of 10 seconds at 95° C. and 20 seconds at 60° C. Viral load was quantitated against known standards by using ViiA™ 7 Software. Viral load in the supernatant from wells with treated cells were compared against viral load in supernatant from DMSO control wells (≥3 per plate). In Table 4, concentrations of test compound causing reductions in viral load greater than at least 3 standard deviations from the DMSO controls across all plates were considered active, with (+) depicting meets criteria for significant activity, and (++) depicting exceeds criteria.

HBV Cp = assay: Capsid assembly assay (fluorescence quenching); conditions: 10 μM compound, control reactions with no drug show 25±5% assembly

| Structure (SMILES) | reduction in viral load vs DMSO controls (AD38 cells; test concentration 3 μM) | reduction in viral load vs DMSO controls (AD38 cells; test concentration 10 μM) | % Capsid formation at 24 h (10 μM) (HBV Cp) [%] | reduction in viral load vs DMSO controls (AD38 cells; test concentration 1 μM) |
| --- | --- | --- | --- | --- |
| Cc1ccc(Nc2cc(C)nc(N3CCN(S(=O)(=O)c4ccc(C)cc4)CC3)n2)cc1 [compound 1] | ++ | ++ | 95 | – |
| Cc1ccc(Nc2cc(C)nc(N3CCN(S(=O)(=O)c4ccc(OC(F)(F)F)cc4)CC3)n2)cc1 [compound 2] | – | – | 83 | – |
| Cc1ccc(Nc2cc(C)nc(N3CCN(S(=O)(=O)c4ccc(Cl)cc4)CC3)n2)cc1 [compound 3] | ++ | ++ | 94 | ++ |
| Cc1ccc(Nc2cc(C)nc(N3CCN(S(=O)(=O)c4ccc(O)cc4)CC3)n2)cc1 [compound 4] | – | – | 99 | – |
| CCc1ccc(S(=O)(=O)N2CCN(c3nc(C)cc(Nc4ccc(C)cc4)n3)CC2)cc1 [compound 5] | ++ | ++ | 91 | – |
| Cc1ccc(Nc2cc(C)nc(N3CCN(S(=O)(=O)c4ccc(C(C)C)cc4)CC3)n2)cc1 [compound 6] | ++ | ++ | 92 | – |
| Cc1ccc(Nc2cc(C)nc(N3CCN(S(=O)(=O)c4cccc(C)c4)CC3)n2)cc1 [compound 7] | ++ | ++ | 79 | + |
| CCOc1ccc(S(=O)(=O)N2CCN(c3nc(C)cc(Nc4ccc(C)cc4)n3)CC2)cc1 [compound 8] | ++ | ++ | 98 | – |
| CCCCOc1ccc(S(=O)(=O)N2CCN(c3nc(C)cc(Nc4ccc(C)cc4)n3)CC2)cc1 [compound 9] | – | – | 93 | – |
| CC(=O)Nc1ccc(S(=O)(=O)N2CCN(c3nc(C)cc(Nc4ccc(C)cc4)n3)CC2)cc1 [compound 10] | ++ | ++ | 96 | + |
| COc1ccc(S(=O)(=O)N2CCN(c3nc(C)cc(Nc4ccc(C)cc4)n3)CC2)cc1 [compound 11] | ++ | ++ | 89 | – |
| Cc1ccc(Nc2cc(C)nc(N3CCN(S(=O)(=O)c4ccccc4)CC3)n2)cc1 [compound 12] | – | – | 73 | – |
| Cc1ccc(Nc2cc(C)nc(N3CCN(S(=O)(=O)c4ccc(F)cc4)CC3)n2)cc1 [compound 13] | – | – | 60 | – |
| Cc1ccc(Nc2cc(C)nc(N3CCN(S(=O)(=O)c4ccccc4F)CC3)n2)cc1 [compound 14] | – | – | 67 | – |
| Cc1ccc(Nc2cc(C)nc(N3CCN(S(=O)(=O)c4cccc(F)c4)CC3)n2)cc1 [compound 15] | ++ | ++ | 76 | – |
| COc1cccc(S(=O)(=O)N2CCN(c3nc(C)cc(Nc4ccc(C)cc4)n3)CC2)c1 [compound 16] | ++ | ++ | 95 | ++ |
| Cc1ccc(Nc2cc(C)nc(N3CCN(S(=O)(=O)c4ccc5ccccc5c4)CC3)n2)cc1 [compound 17] | – | – | 70 | – |
| COc1ccc(S(=O)(=O)N2CCN(c3nc(C)cc(Nc4ccc(C)cc4)n3)CC2)cc1OC [compound 18] | ++ | ++ | 71 | – |
| Cc1ccc(Nc2cc(C)nc(N3CCN(S(=O)(=O)c4ccc5cc(N(C)C)ccc5c4)CC3)n2)cc1 [compound 19] | – | – | 83 | – |
| CCCCc1ccc(S(=O)(=O)N2CCN(c3nc(C)cc(Nc4ccc(C)cc4)n3)CC2)cc1 [compound 20] | – | – | 90 | – |
| CC(C)c1cc(Nc2ccc(F)cc2)nc(N2CCN(S(=O)(=O)c3ccccc3)CC2)n1 [compound 21] | – | – | 71 | – |

| Structure (SMILES) | reduction in viral load vs DMSO controls (AD38 cells; test concentration 3 μM) | reduction in viral load vs DMSO controls (AD38 cells; test concentration 10 μM) | % Capsid formation at 24 h (10 μM) (HBV Cp) [%] | reduction in viral load vs DMSO controls (AD38 cells; test concentration 1 μM) |
| --- | --- | --- | --- | --- |
| Cc1ccc(S(=O)(=O)N2CCN(c3nc(Nc4ccc(F)cc4)cc(C(C)C)n3)CC2)cc1 [compound 22] | – | – | 80 | – |
| Cc1ccc(Nc2cc(C)nc(N3CCN(S(=O)(=O)c4ccc(N(C)C)cc4)CC3)n2)cc1 [compound 23] | ++ | ++ | 88 | + |
| CNc1ccc(S(=O)(=O)N2CCN(c3nc(C)cc(Nc4ccc(C)cc4)n3)CC2)cc1 [compound 24] | ++ | ++ | 96 | – |
| Cc1ccc(Nc2cc(C)nc(N3CCN(S(=O)(=O)c4ccc(N)cc4)CC3)n2)cc1 [compound 26] | ++ | ++ | 96 | – |
| Cc1ccc(Nc2cc(C)nc(N3CCN(S(=O)(=O)c4ccc(OC(C)(C)C)cc4)CC3)n2)cc1 [compound 27] | ++ | ++ | 84 | – |
| Cc1ccc(Nc2cc(C)nc(N3CCN(S(=O)(=O)c4ccc(OC(F)F)cc4)CC3)n2)cc1 [compound 28] | ++ | ++ | 96 | ++ |
| CCc1cc(Nc2ccc(C)cc2)nc(N2CCN(S(=O)(=O)c3ccc(OC)cc3)CC2)n1 [compound 29] | ++ | ++ | 94 | ++ |
| COc1ccc(S(=O)(=O)N2CCN(c3nc(Nc4ccc(C)cc4)cc(C(C)C)n3)CC2)cc1 [compound 30] | – | – | 87 | – |
| COc1ccc(S(=O)(=O)N2CCN(c3nc(Nc4ccc(C)cc4)cc(C(C)(C)C)n3)CC2)cc1 [compound 31] | ++ | ++ | 87 | – |
| CCCc1cc(Nc2ccc(C)cc2)nc(N2CCN(S(=O)(=O)c3ccc(OC)cc3)CC2)n1 [compound 32] | ++ | ++ | 69 | ++ |
| COc1ccc(S(=O)(=O)N2CCN(c3nc(C)cc(Nc4ccc(Br)cc4)n3)CC2)cc1 [compound 34] | ++ | ++ | 96 | ++ |
| CCc1ccc(Nc2cc(C)nc(N3CCN(S(=O)(=O)c4ccc(OC)cc4)CC3)n2)cc1 [compound 35] | ++ | ++ | 81 | ++ |
| COc1ccc(S(=O)(=O)N2CCN(c3nc(C)cc(Nc4ccc(OC(F)(F)F)cc4)n3)CC2)cc1 [compound 36] | – | – | 78 | – |
| COc1ccc(S(=O)(=O)N2CCN(c3nc(C)cc(Nc4ccc(Cl)cc4)n3)CC2)cc1 [compound 37] | ++ | ++ | 93 | ++ |
| COc1ccc(S(=O)(=O)N2CCN(c3nc(C)cc(Nc4ccc(F)cc4)n3)CC2)cc1 [compound 38] | – | – | 75 | – |
| COc1ccc(S(=O)(=O)N2CCN(c3nc(C)cc(Nc4ccccc4)n3)CC2)cc1 [compound 39] | – | – | 56 | – |
| COc1ccc(Nc2cc(C)nc(N3CCN(S(=O)(=O)c4ccc(OC)cc4)CC3)n2)cc1 [compound 41] | – | – | 84 | – |
| COc1ccc(Nc2cc(C)nc(N3CCN(S(=O)(=O)c4ccc(OC)cc4)CC3)n2)cc1 [compound 43] | – | – | 97 | – |
| COc1cccc(S(=O)(=O)N2CCN(c3nc(C)cc(Nc4ccc(F)cc4)n3)CC2)c1 [compound 44] | – | – | 92 | – |
| COc1ccc(Nc2cc(C)nc(N3CCN(S(=O)(=O)c4ccc(OC)c(OC)c4)CC3)n2)cc1 [compound 45] | – | – | 87 | – |
